Source: patent US7838645B2, “Function of autophagy genes in cell death” (University of Maryland College Park, priority 2004, dated 2010)
Where a SMILES comes first, the peptide text is derived from it. The star is where a group is joined. Cbz = O=C(OCc1ccccc1)*; CH2Cl = ClC*; CH2F = FC*

How the values were obtained:
L929 cells [1] = assay: Cell death analysis (propidium iodide staining, flow cytometry) in L929 cells; type: cell-based, mouse; details: for Induction of cell death (% cell loss): 40 hours, FIG. 9
Description: (§1) Cell viability was determined after treatments by staining with propidium iodide (2 μg/mL) and flow cytometric analysis on a FACScan. Percent cell death was quantitated as previously described (26).
In mouse L929 fibroblastic cells, tumor necrosis factor (TNF), oxidants, ceramide, and radiation can induce caspase-independent death (11). […] L929 cells were treated with 1 ul of dimethyl sulfoxide (DMSO) FIG. 1A (a and c) or 20 uM zVAD (b and d) for 24 hours and examined by phase contrast microscopy (a and b); or 4′,6′-diamidino-2-phenylindole-staining and fluorescent microscopy (c and d). Magnification: 200×. […] The percentage of vaculated cells is the fraction of cells that have 10 or more autophagic vacuoles by TEM. Statistical analysis is shown in FIG. 4 and morphometric analysis of zVAD-induced autophagy in L929 cells is quantitated in Table 1 setforth below. […]
L929 cells were treated with 1 ul/ml DMSO, 20 uM zVAD, 20 uM zFA, 20 uM LEHD, 20 uM DEVD, or 20 uM zAAD for 40 hours, and % cell loss was quantified by flow cytometry. […] Because zVAD is a potent inhibitor of caspase-8, it likely exerted its death effect through inhibition of caspase-8.

RAW264.7 cells = assay: Cell loss by flow cytometry in RAW264.7 cells; type: cell-based, mouse; details: FIG. 6
Description: as §1
(§2) The RAW264.7 cells were treated with 0.1 ug/ml Wortmannin (WM) or 10 mM 3-methyladenine (3-MA) for 1 hr and the with 100 uM zVAD for 48 hrs, after which cell loss was quantitated by flow cytometry. […] Mouse peritoneal macrophages cells were treated with 0.1 ug/ml Wortmannin (WM) or 10 mM 3-methyladenine (3-MA) for 1 hr and with 100 uM zVAD for 24 hrs, after which cell loss were quantitated by flow cytometry.

[2] = tested on: mouse peritoneal macrophages; assay: Cell loss by flow cytometry in mouse peritoneal macrophages; type: cell-based; details: FIG. 7
Description: as §1, §2

RIP = RIP cleavage by caspase-8 (Western blot, FIG. 11); type: cell-based; details: cells treated with zVAD
Excerpt: It was observed that the signaling through the serine-threonine kinase RIP is essential for autophagic cell death. When RIP is cleaved and inactivated by caspase 8, then a mechanism is provided for the prevention of autophagic cell death. However, inhibition of caspase 8 allows RIP to transmit the signal needed to kill the cell through the autophagic pathway. […] Clearly, zVAD treatment prevents RIP from constitutive caspase-8 cleavage. The indicated band is the 42 kD proteolytic product that is characteristic of caspase-8 cleavage (1).

[3] = tested on: c-Jun N-terminal kinase (JNK); assay: Detection of phosphorylated JNK/SAPK by Western blot in L929 cells; type: cell-based, mouse; details: zVAD 24 hrs, 2% FBS, FIG. 2B
Description: L929 cells were treated with DMSO or zVAD for 24 hrs in the presence of 2% FBS. The cell lysate was spun for 10 minutes at 13000 rpm. 20 ul of the c-Jun beads (SAPK/JNK assay kit from Cell Signaling) were added to the supernatant and incubated overnight at 4° C. Beads were washed 4 times with lysis buffer and resuspended in 50 ul of 1× sample buffer. Samples were boiled for 5 minutes and analyzed by SDS-PAGE and Western blot for phosphorylated SAP/JNK by probing with phospho-JNK antibody.
Death receptors can elicit nonapoptotic death through the “receptor-interacting protein” (RIP), a death-domain-containing, serine-threonine kinase (6, 7). […] For example, cells were treated with zVAD after transfection with RIP RNAi or nonspecific (NS) oligonucleotides. Reduction in cell number (solid bars) and the fractions of cells with autophagic features based on TEM (open bars) are shown in FIG. 2A. FIG. 2B is a western blot for phospho-JNK (left lane) or total JNK protein (right lane) after zVAD treatment. zVAD activated c-Jun N-terminal kinase (JNK) that is also activated by RIP in response to cytokines.

L929 cells [4] = assay: Transmission electron microscopy morphometric analysis of autophagy in L929 cells; type: cell-based, mouse; details: for Apoptotic cell / Autophagic and apoptotic features / Autophagic cells(total) / Lytic/necrotic cell / Mild autophagy (cell with 10~19 vacuoles) / Moderate autophagy (cell with 20~29 vacuoles) / Normal cells / Severe Autophagy (cell with 30 or more vacuoles) / Vacuolated(but not autophagic): TEM, of total 100
Description: Cells were fixed in 3% glutaraldehyde in 0.1 M MOPS buffer (pH 7.0) for 8 hrs at room temperature, 3% glutaraldehyde/1% paraformaldehyde in 0.1 M MOPS buffer (pH 7.0) for 16 hours at 4° C., post-fixed in 1% osmium tetroxide for 1 hour, embedded in Spurr's resin, sectioned, double stained with Uranyl acetate and Lead citrate, and analyzed using a Zeiss EM 10 transmission electron microscope. For each treatment or control group, at least 100 cells from randomly chosen transmission electron microscopy fields were analyzed for quantification of morphological features. Cells with ≧10 vacuoles were scored as autophagy positive. Cells were stratified as follows: 0 (≦9 vacuoles/cell), 1(10-19 vacuoles/cell), 2 (20-29 vacuoles/cell), 3 (≧30 vacuoles/cell). Scores were ranked and comparisons of treatment to control groups were made using the Mann-Whitney U test using the Statview 5.0.1 program. Statistical analysis of the differences in FIG. 1, panels D, E, F, and G and FIG. 2A, B, D were significant (p<0.0001).
In mouse L929 fibroblastic cells, tumor necrosis factor (TNF), oxidants, ceramide, and radiation can induce caspase-independent death (11). […] L929 cells were treated with 1 ul of dimethyl sulfoxide (DMSO) FIG. 1A (a and c) or 20 uM zVAD (b and d) for 24 hours and examined by phase contrast microscopy (a and b); or 4′,6′-diamidino-2-phenylindole-staining and fluorescent microscopy (c and d). Magnification: 200×. […] The percentage of vaculated cells is the fraction of cells that have 10 or more autophagic vacuoles by TEM. Statistical analysis is shown in FIG. 4 and morphometric analysis of zVAD-induced autophagy in L929 cells is quantitated in Table 1 setforth below.

COC(=O)CC(NC(=O)C(C)NC(=O)C(NC(=O)OCc1ccccc1)C(C)C)C(=O)CF (stereo not drawn) [zVAD, Benzyloxycarbonyl-Valyl-Alanyl-Aspartyl-(O-methyl)-fluoromethylketone] (Cbz-Val-Ala-Asp(OMe)-CH2F; configuration not given here)
Time after which death was complete (L929 cells [1]; 20 uM zVAD, FIG. 1B): 40 h
Time at which death began after zVAD treatment (L929 cells [1]; 20 uM zVAD, FIG. 1B): 12 h
Induction of death of L929 cells (L929 cells [1]; 20 uM, 24 hours, microscopy): directly induced the death of L929 cells
Induction of cell death (% cell loss) (L929 cells [1]; 20 uM, flow cytometry): induced cell death
Induction of cell death (RAW264.7 cells; 100 uM zVAD for 48 hrs): induced cell death by the autophagic pathway
Induction of cell death ([2]; 100 uM zVAD for 24 hrs): induced cell death by the autophagic pathway
RIP cleavage fragments characteristic of caspase-8 activity (RIP): no cleaved fragments were found
Activation of JNK (phospho-JNK Western blot) [3]: activated
Time course of zVAD induced autophagy (percentage of vacuolated cells, 10 or more autophagic vacuoles by TEM) (L929 cells [4]; FIG. 1D): vacuolated cells accumulated prior to cell death
Apoptotic cell (L929 cells [4]; zVAD 0 hrs): 0
Autophagic and apoptotic features (L929 cells [4]; zVAD 0 hrs): 0
Autophagic cells(total) (L929 cells [4]; zVAD 0 hrs): 0
Lytic/necrotic cell (L929 cells [4]; zVAD 0 hrs): 0
Mild autophagy (cell with 10~19 vacuoles) (L929 cells [4]; zVAD 0 hrs): 0
Moderate autophagy (cell with 20~29 vacuoles) (L929 cells [4]; zVAD 0 hrs): 0
Normal cells (L929 cells [4]; zVAD 0 hrs): 85
Severe Autophagy (cell with 30 or more vacuoles) (L929 cells [4]; zVAD 0 hrs): 0
Vacuolated(but not autophagic) (L929 cells [4]; zVAD 0 hrs): 15
Apoptotic cell (L929 cells [4]; zVAD 8 hrs): 4
Autophagic and apoptotic features (L929 cells [4]; zVAD 8 hrs): 1
Autophagic cells(total) (L929 cells [4]; zVAD 8 hrs): 76
Lytic/necrotic cell (L929 cells [4]; zVAD 8 hrs): 0
Mild autophagy (cell with 10~19 vacuoles) (L929 cells [4]; zVAD 8 hrs): 55
Moderate autophagy (cell with 20~29 vacuoles) (L929 cells [4]; zVAD 8 hrs): 20
Normal cells (L929 cells [4]; zVAD 8 hrs): 19
Severe Autophagy (cell with 30 or more vacuoles) (L929 cells [4]; zVAD 8 hrs): 1
Vacuolated(but not autophagic) (L929 cells [4]; zVAD 8 hrs): 0
Apoptotic cell (L929 cells [4]; zVAD 12 hrs): 1
Autophagic and apoptotic features (L929 cells [4]; zVAD 12 hrs): 1
Autophagic cells(total) (L929 cells [4]; zVAD 12 hrs): 93
Lytic/necrotic cell (L929 cells [4]; zVAD 12 hrs): 3
Mild autophagy (cell with 10~19 vacuoles) (L929 cells [4]; zVAD 12 hrs): 24
Moderate autophagy (cell with 20~29 vacuoles) (L929 cells [4]; zVAD 12 hrs): 59
Normal cells (L929 cells [4]; zVAD 12 hrs): 2
Severe Autophagy (cell with 30 or more vacuoles) (L929 cells [4]; zVAD 12 hrs): 10
Vacuolated(but not autophagic) (L929 cells [4]; zVAD 12 hrs): 0

COC(=O)CC(NC(=O)C(C)NC(=O)C(C)NC(=O)OCc1ccccc1)C(=O)CCl (stereo not drawn) [ZAAD, benzyloxycarbonyl-Alanyl-Alanyl-Aspartyl-(O-methyl)-chloromethylketone] (Cbz-Ala-Ala-Asp(OMe)-CH2Cl; configuration not given here)
Induction of cell death (% cell loss) (L929 cells [1]; 20 uM, flow cytometry): no ability to induce cell death

Cn1cnc(N)c2ncnc1-2 [3-MA, 3-methyladenine]
Effect on zVAD-induced cell loss (L929 cells [1]; WM 0.1 ug/ml or 3-MA 10 mM for 1 hour, then 20 uM zVAD for 36 hours, FIG. 1E): reduction in cell loss
Effect on zVAD-induced cell death (RAW264.7 cells; 0.1 ug/ml WM or 10 mM 3-MA for 1 hr, then 100 uM zVAD for 48 hrs): arrested zVAD-induced cell death
Effect on zVAD-induced cell death ([2]; 0.1 ug/ml WM or 10 mM 3-MA for 1 hr, then 100 uM zVAD for 24 hrs): arrested zVAD-induced cell death

COC(=O)CCC(NC(=O)C(CC(=O)OC)NC(=O)OCc1ccccc1)C(=O)NC(C(=O)NC(CC(=O)OC)C(=O)CF)C(C)C (stereo not shown) [DEVD, benzyloxycarbonyl-Aspartyl-(O-methyl)-Glutamyl-(O-methyl)-Valyl-Aspartyl-(O-methyl)-fluoromethylketone]
Induction of cell death (% cell loss) (L929 cells [1]; 20 uM, flow cytometry): no ability to induce cell death

O=C1c2ccccc2-c2n[nH]c3cccc1c23 [JNK inhibitor II, Anthra[1,9-cd]pyrazol-6 (2H)-one 1,9-pyrazoloanthrone]
Effect on zVAD-induced cell death (% cell loss) (L929 cells [1]; 1 ug/ml inhibitor for 1 hour, then 20 uM zVAD for 40 hours, flow cytometry, FIG. 8): blocked zVAD-induced cell death

C[C@@H]1C[C@@H]([C@H](O)CC2CC(=O)NC(=O)C2)C(=O)[C@@H](C)C1 [cycloheximide, Cycloheximide]
Effect of protein synthesis inhibition on zVAD-induced cell death (L929 cells [1]; FIG. 2C): blocked cell death
